Data published in patent US20120283207A1, “ANTIBACTERIAL AMINOGLYCOSIDE ANALOGS” (Achaogen, Inc., priority 2009, published 2012).
In brackets after ≈: the same amount, converted by molar mass.

Key:
[1] = test system: P. aeruginosa ATCC 27853; test: MIC assay, CLSI broth microdilution, APAE001; type: cell-based; details: Pseudomonas aeruginosa; APAE001 is ATCC27853; Mueller Hinton Broth, 35 C, 20 hours
Description: (§1) Minimum inhibitory concentrations (MIC) were determined by reference Clinical and Laboratory Standards Institute (CLSI) broth microdilution methods per M7-A7 [2006]. Quality control ranges utilizing E. coli ATCC 25922, P. aeruginosa ATCC 27853 and S. aureus ATCC 29213, and interpretive criteria for comparator agents were as published in CLSI M100-S17 [2007]. Briefly, serial two-fold dilutions of the test compounds were prepared at 2× concentration in Mueller Hinton Broth. The compound dilutions were mixed in 96-well assay plates in a 1:1 ratio with bacterial inoculum. The inoculum was prepared by suspension of a colony from an agar plate that was prepared the previous day. Bacteria were suspended in sterile saline and added to each assay plate to obtain a final concentration of 5×10^5 CFU/mL. The plates were incubated at 35 C for 20 hours in ambient air.

[2] = test system: E. coli ATCC 25922; test: MIC assay, CLSI broth microdilution, AECO001; type: cell-based; details: Escherichia coli; AECO001 is ATCC25922; Mueller Hinton Broth, 35 C, 20 hours
Description: as §1

Row | Compound | MIC [1] [µg/mL] | MIC [2] [µg/mL]
1 | NCC1=CC[C@@H](N)[C@@H](O[C@H]2[C@H](O[C@@H]3O[C@H](CO)[C@@H](O[C@H]4OC(CN)[C@@H](O)[C@H](O)[C@H]4N)[C@H]3O)[C@@H](O)[C@H](N)C[C@@H]2N)O1 (stereo partly shown) [1/10, 4′,5′-dehydro-3′-deoxy-neomycin] | ≤ 1 | 1 to 16 (≈ 1.72 to 27.6 µM)
2 | NCC1O[C@H](O[C@H]2[C@@H](O)[C@H](O[C@@H]3[C@@H](O)[C@H](N)C[C@H](N)[C@H]3O[C@H]3OC(CO)=CC[C@H]3N)O[C@@H]2CO)[C@H](N)[C@@H](O)[C@@H]1O (stereo partly shown) [2/3, 4′,5′-dehydro-3′-deoxy-paromomycin] | > 16 | > 16
3 | CNCC1=C[C@H](O)[C@@H](N)[C@@H](O[C@H]2[C@H](O[C@@H]3O[C@H](CO)[C@@H](O[C@H]4OC(CN)[C@@H](O)[C@H](O)[C@H]4N)[C@H]3O)[C@@H](O)[C@H](N)C[C@@H]2N)O1 (stereo partly shown) [3/3, 6′-N-methyl-4′,5′-dehydro-neomycin] | ≤ 1 | 1 to 16 (≈ 1.64 to 26.2 µM)
4 | CNCC1=CC[C@@H](N)[C@@H](O[C@H]2[C@H](O[C@@H]3O[C@H](CO)[C@@H](O[C@H]4OC(CN)[C@@H](O)[C@H](O)[C@H]4N)[C@H]3O)[C@@H](O)[C@H](N)C[C@@H]2N)O1 (stereo partly shown) [4/3, 6′-N-methyl-4′,5′-dehydro-3′-deoxy-neomycin] | 1 to 16 (≈ 1.68 to 26.9 µM) | 1 to 16 (≈ 1.68 to 26.9 µM)
5 | NCC[C@H](O)C(=O)N[C@@H]1C[C@H](N)[C@@H](O[C@H]2OC(CN)=CC[C@H]2N)[C@H](O[C@@H]2O[C@H](CO)[C@@H](O[C@H]3O[C@@H](CN)[C@@H](O)[C@H](O)[C@H]3N)[C@H]2O)[C@H]1O [5/6, 1-(2(S)-hydroxy-4-amino-butyryl)-4′,5′-dehydro-3′-deoxy-neomycin] | ≤ 1 | ≤ 1
